From patent publication US4360516A, “Modified D-retro cyclic hexapeptide somatostatin analogs” (Merck & Co., Inc., priority 1981, dated 1982)
Square brackets hold non-standard residues; d marks the D form. Peptide text beside a SMILES is read from it. dNMeF = CN[C@H](Cc1ccccc1)C(=O)O; dAbu = CC[C@@H](N)C(=O)O

test system: growth hormone release, rat pituitary cells; assay: in vitro test for the inhibition of growth hormone release in cultured rat pituitary cells; assay type: cell-based; conditions: multiples or fractions of the effect of somatostatin (arbitrary value 1); rat pituitary cells after 4 days in culture, 4 hours incubation, graded doses; growth hormone by radioimmunoassay
Protocol: The instant cyclic hexapeptide analogs ofsomatostatin are tested and compared with the effects of somatostatin in an in vitro test for the inhibition of growth hormone. The test is described as follows:
"Rat pituitaries" were isolated according to the procedures of Vale and Grant `In vitro Pituitary Hormone Secretion Assay for Hypophysiopic Substances` in Methods in Enzymology. Vol.XXXVII, eds. O'Malley, B. W. and Hardman, J. G. (Academic Press, Inc., New York) pp.5-93 (1975).
"After 4 days in culture, the cells were washed and incubated for 4 hours in Dulbecco-modified Eagle's medium in the presence or absence of graded doses of each analog of somatostatin. The medium was then collected for subsequent growth hormone determination by a double antibody radioimmunoassay for rat growth hormone."
The test results for some of the compounds of this invention are recorded below with the results for somatostatin listed first and given the arbitrary value of 1. The results for the instant compounds are given as multiples or fractions of the effect of somatostatin. The first of the instant compounds listed is the compound prepared in Examples 1-5. The compound is written slightly different, however, to conform to the order of the amino acids found in somatostatin.

| SMILES | Growth Hormone Release Inhibition In Vitro |
| --- | --- |
| CC(C)[C@H]1NC(=O)[C@@H](Cc2ccccc2)N(C)C(=O)[C@@H](C)NC(=O)[C@@H](Cc2ccccc2)NC(=O)[C@@H](Cc2c[nH]c3ccccc23)NC(=O)[C@H](CCCCN)NC1=O [Cyclo-(D-Ala--N--Me--D-Phe--D-Val--L-Lys--D-Trp--D-Phe)] (cyclo(K[dW][dF][dA][dNMeF][dV])) | 0.3 |
| CC[C@H]1NC(=O)[C@@H](Cc2ccc(O)cc2)NC(=O)[C@@H](Cc2c[nH]c3ccccc23)NC(=O)[C@H](CCCCN)NC(=O)[C@@H](C(C)C)NC(=O)[C@@H](Cc2ccccc2)N(C)C1=O [Cyclo-(D-Abu--N--Me--D-Phe--D-Val--L-Lys--D-Trp--D-Tyr)] (cyclo(K[dW][dY][dAbu][dNMeF][dV])) | 2.4 |
| C[C@H](O)[C@H]1NC(=O)[C@@H](Cc2ccccc2)N(C)C(=O)[C@@H](C)NC(=O)[C@@H](Cc2ccccc2)NC(=O)[C@@H](Cc2c[nH]c3ccccc23)NC(=O)[C@H](CCCCN)NC1=O [Cyclo-(D-Ala--N--Me--D-Phe--D-Thr--L-Lys--D-Trp--D-Phe)] (cyclo(K[dW][dF][dA][dNMeF][dT])) | 0.88 |
| C[C@H](O)[C@H]1NC(=O)[C@@H](Cc2ccccc2)N(C)C(=O)[C@@H](C)NC(=O)[C@@H](Cc2ccccc2)NC(=O)[C@H](Cc2c[nH]c3ccccc23)NC(=O)[C@@H](CCCCN)NC1=O [Cyclo-(D-Ala--N--Me--D-Phe--D-Thr--D-Lys--L-Trp--D-Phe)] (cyclo(W[dF][dA][dNMeF][dT][dK])) | 0.27 |
